# Tests used:
# Format in all cases: cell-based, human
# [1] = system: CUG foci in primary DM1 patient myoblasts; experiment: Dual-cut screening: FISH staining of CUG RNA foci; conditions: sgRNAs working with partner(s) or alone
# In short: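 SluCas9 RNPs (protein:sgRNA 1:3; 20 pmol SluCas9 + 60 pmol sgRNA per guide, paired 1:1) nucleofected into primary DM1 patient myoblasts, then DMSO or 3 μM DNA-PKi Compound 6 for 48 h. At 72 h post-nucleofection cells fixed, FISH-stained with Cy3-PNA(CAG)5 probe plus anti-MBNL1 and Hoechst; % CUG foci-free nuclei by high-content confocal imaging.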
# [2] = system: CUG foci in primary DM1 patient myoblasts; experiment: Single-cut screening: FISH staining of CUG RNA foci; conditions: for frequency of CUG foci free myoblast nuclei (foci number per nucleus=0) / frequency of myoblast nuclei that contain more than three CUG foci: RNA foci distribution analysis (FIG. 6A-B); for % of CUG foci free nuclei (DNA-PKi) / % of CUG foci free nuclei (Vehicle): single sgRNA, primary DM1 patient myoblasts; for % of CUG foci free nuclei (DNA-PKi): DNA-PKi treated
# In short: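 CD56-purified primary DM1 patient myoblasts nucleofected with SluCas9:sgRNA RNP (30:90 pmol, single-cut), then DMSO or 3 μM DNA-PK inhibitor for 48 h. At 72 h post-nucleofection, cells fixed and stained for CUG foci with Cy3-PNA(CAG)5 probe (1 ng/μL, 80 °C), co-stained for MBNL1 and Hoechst, imaged by high-content confocal microscopy.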
# [3] = system: CAG foci in primary DM1 patient myoblasts; experiment: Single-cut screening: CAG foci staining; conditions: single sgRNA; for % of CAG foci positive nuclei (DNA-PKi): DNA-PKi treated
# In short: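 Primary DM1 patient myoblasts were PFA-fixed and hybridized with […] (1 ng/μL, 15 min at 80° C) in 30% formamide/2×SSC, followed by anti-MBNL1 immunostaining and Hoechst counterstain. CAG RNA foci were quantified by high-content confocal imaging after single-cut SuCas9 sgRNA editing.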
Substance,RNA foci reduction efficiency [1],frequency of CUG foci free myoblast nuclei (foci number per nucleus=0) [2],frequency of myoblast nuclei that contain more than three CUG foci [2],% of CUG foci free nuclei (DNA-PKi) [2] [%],% of CUG foci free nuclei (Vehicle) [2] [%],"percentage of CUG foci free nuclei ([2]; single-cut, DNA-PKi treatment (3 μM Compound 6, 48 hrs)) [%]",% of CAG foci positive nuclei (DNA-PKi) [3] [%],% of CAG foci positive nuclei (Vehicle) [3] [%]
"ATGGGCAAACTGCAGGCCTGGG (listed as DNA, chemistry not fully specified) [SluD14]",exceptionally high RNA foci reduction efficiency,increased the frequency,reduced the frequency,81.82,53.12,81.82,3.96,6.7
"GCCCCGTTGGAAGACTGAGTGC (listed as DNA, chemistry not fully specified) [SluU08]",exceptionally high RNA foci reduction efficiency,,,61.56,31.42,,1.61,2.21
"gggcTCGAAGGGTCCTTGTAGC (as printed in the source, key not given here) [SluU64]",exceptionally high RNA foci reduction efficiency,,,67.39,37.58,,2.58,1.23
"ggggcTCGAAGGGTCCTTGTAG (as printed in the source, key not given here) [SluU63]",exceptionally high RNA foci reduction efficiency,increased the frequency,reduced the frequency,70.99,44.78,,5.49,3.29
